Measured values from article PMC6442109, “Novel thienopyrimidine derivatives as dual EGFR and VEGFR-2 inhibitors: design, synthesis, anticancer activity and effect on cell cycle profile” (Journal of Enzyme Inhibition and Medicinal Chemistry, 2019).
Where two headings read alike, the source gives them in different places.

What was measured:
MCF-7 cell line = test: MTT anticancer activity assay against MCF-7; conditions: for IC50: Homo sapiens, MCF7, 48 h, read-out: IC50 on MCF-7 cell line
EGFR [1] = target: T1, EGFR (Homo sapiens, UniProt P00533); test: In vitro EGFR kinase inhibitory assay (Kinase-Glo luminescence kit)
T1 sequence (P00533 25-1210): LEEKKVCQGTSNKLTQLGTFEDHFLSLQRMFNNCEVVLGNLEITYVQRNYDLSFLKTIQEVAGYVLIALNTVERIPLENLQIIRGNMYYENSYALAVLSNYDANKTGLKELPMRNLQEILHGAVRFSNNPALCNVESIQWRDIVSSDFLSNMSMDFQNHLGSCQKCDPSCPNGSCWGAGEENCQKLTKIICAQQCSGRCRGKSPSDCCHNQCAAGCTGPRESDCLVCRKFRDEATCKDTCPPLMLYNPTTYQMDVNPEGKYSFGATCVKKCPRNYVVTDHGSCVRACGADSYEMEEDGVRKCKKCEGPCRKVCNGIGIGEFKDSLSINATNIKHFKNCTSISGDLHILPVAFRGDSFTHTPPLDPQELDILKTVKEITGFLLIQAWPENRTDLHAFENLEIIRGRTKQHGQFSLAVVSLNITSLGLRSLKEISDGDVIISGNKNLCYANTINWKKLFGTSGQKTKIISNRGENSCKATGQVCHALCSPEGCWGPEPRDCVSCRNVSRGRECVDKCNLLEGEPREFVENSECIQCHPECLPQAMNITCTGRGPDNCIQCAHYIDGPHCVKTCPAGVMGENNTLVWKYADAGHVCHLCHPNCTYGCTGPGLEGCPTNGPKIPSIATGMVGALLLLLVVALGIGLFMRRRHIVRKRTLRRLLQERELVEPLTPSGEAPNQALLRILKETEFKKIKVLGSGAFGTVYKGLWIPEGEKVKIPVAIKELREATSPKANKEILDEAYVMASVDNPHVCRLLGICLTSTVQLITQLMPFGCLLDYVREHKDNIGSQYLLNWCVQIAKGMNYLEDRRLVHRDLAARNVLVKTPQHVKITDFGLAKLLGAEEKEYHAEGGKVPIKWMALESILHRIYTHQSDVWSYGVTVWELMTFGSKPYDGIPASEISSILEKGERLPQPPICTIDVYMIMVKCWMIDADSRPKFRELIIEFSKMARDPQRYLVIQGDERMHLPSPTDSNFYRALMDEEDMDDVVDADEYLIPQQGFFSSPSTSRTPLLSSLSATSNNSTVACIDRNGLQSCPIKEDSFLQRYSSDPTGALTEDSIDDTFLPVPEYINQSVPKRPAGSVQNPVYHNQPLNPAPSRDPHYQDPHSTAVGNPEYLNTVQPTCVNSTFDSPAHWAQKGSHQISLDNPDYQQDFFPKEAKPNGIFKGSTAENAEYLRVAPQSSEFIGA
Protocol: All samples and controls were tested in triplicate. 5× Kinase assay buffer, ATP and 50× PTK substrate were thawed. The master mixture was constructed (25 µL per well), consequently 25 µL was added to every well. About 5 µL inhibitor solution was added to each well labeled as “Test Inhibitor” while for the “Positive control” and “Blank”, 5 µL of the buffer solution without inhibitor (Inhibitor buffer) was added.
About 3 mL of 1× kinase assay buffer was developed through mixing 600 µL of 5× kinase assay buffer with 2400 µL water. About 20 µL of 1× kinase assay buffer was added to the wells designated as “Blank”. EGFR enzyme was thawed on ice. Consequent to the first thaw, the tube containing enzyme was shortly spun so as to recover full content of the tube. The amount of EGFR required for the assay was calculated then the enzyme was diluted to 1 ng/µL with 1× kinase assay buffer. Reaction was initiated via addition of 20 µL of diluted EGFR enzyme to the wells designated “Positive Control” and “Test Inhibitor Control” then incubation at 30 °C for 40 min. Kinase-Glo Max reagent was thawed. After the 40 min reaction, 50 µL of Kinase-Glo Max reagent was added to each well. Plates were covered with aluminum foil and incubated at room temperature for 15 min. Finally, luminescence was measured using the microplate Robonik P2000 ELISA Reader (India).

[2] = target: T2, recombinant human VEGFR-2/KDR (Homo sapiens, UniProt P35968); test: In vitro VEGFR-2 kinase inhibitory assay (ELISA kit); assay type: biochemical; conditions: mean of three experiments ± SD
T2 construct: purchased #7788
T2 sequence (P35968 20-1356): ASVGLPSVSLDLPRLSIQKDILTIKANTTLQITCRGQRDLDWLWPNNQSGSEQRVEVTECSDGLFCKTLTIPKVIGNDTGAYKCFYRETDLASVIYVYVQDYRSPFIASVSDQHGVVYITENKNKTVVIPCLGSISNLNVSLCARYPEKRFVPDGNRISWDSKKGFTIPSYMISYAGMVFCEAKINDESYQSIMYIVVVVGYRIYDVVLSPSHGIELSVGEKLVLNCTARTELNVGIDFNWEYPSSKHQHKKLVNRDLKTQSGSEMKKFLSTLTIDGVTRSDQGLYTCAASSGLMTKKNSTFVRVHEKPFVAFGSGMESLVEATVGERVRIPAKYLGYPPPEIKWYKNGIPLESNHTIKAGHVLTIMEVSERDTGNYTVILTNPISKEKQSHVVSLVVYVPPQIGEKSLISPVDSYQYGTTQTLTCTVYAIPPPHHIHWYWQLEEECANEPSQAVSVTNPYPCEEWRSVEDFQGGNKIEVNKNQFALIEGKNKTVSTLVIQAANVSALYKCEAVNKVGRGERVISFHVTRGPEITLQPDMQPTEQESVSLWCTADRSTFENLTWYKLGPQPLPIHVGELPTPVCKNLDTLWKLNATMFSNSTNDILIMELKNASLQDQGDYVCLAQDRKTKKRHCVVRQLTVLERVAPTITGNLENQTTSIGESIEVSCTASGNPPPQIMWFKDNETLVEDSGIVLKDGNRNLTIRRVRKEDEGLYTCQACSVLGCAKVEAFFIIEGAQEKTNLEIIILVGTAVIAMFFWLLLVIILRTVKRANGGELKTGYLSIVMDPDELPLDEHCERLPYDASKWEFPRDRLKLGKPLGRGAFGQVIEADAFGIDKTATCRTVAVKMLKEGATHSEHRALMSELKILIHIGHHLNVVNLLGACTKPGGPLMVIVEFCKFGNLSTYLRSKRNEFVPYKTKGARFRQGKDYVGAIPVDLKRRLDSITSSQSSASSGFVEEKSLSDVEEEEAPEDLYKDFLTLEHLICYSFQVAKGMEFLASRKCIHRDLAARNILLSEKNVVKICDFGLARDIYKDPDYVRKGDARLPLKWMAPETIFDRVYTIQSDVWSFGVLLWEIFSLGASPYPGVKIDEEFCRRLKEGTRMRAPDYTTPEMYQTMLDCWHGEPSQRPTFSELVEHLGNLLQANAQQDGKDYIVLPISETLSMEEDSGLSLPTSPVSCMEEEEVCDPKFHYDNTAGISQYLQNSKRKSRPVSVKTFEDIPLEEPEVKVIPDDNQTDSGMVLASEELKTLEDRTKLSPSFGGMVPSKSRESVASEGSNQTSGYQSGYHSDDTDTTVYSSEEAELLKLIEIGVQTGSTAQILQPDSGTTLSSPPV
Protocol: About 10 µL of 10 mM ATP was added to 1.25 mL 6 µM substrate peptide followed by dilution of the mixture with distilled water to 2.50 mL to make 2× ATP/substrate cocktail ([ATP] = 40 µM, [substrate] = 3 µm). The enzyme was immediately transferred from –80 °C to ice and was allowed to thaw on ice. Microcentrifuge was performed briefly at 4 °C and returned immediately to ice. […] About 0.6 mL of DTT/Kinase buffer was transferred to each enzyme tube to make 4× reaction mixture. […] About 25 µL of 2× ATP/substrate cocktail was added to 25 µL/well pre-incubated reaction mixture/compound. Reaction plate was incubated at room temperature for 30 min. Then, 50 µL/well stop buffer (50 mM EDTA, pH 8) was added to stop the reaction. […] About 100 µL/well primary antibody was added and incubated at room temperature for 60 min followed by washing three times with 200 µL/well PBS/T.
Appropriate dilution of HRP labeled secondary antibody in PBS/T was prepared with 1% BSA (1:500 dilution for anti-mouse IgG or 1:1000 for anti-rabbit IgG). About 100 µL/well secondary antibody solution was added and incubated at room temperature for 30 min then washed five times with 200 µL/well PBS/T followed by addition of 100 µL/well 3,3′,5,5′-tetramethylbenzidine (TMB) substrate and incubation at room temperature for 15 min and finally addition of 100 µL/well of stop solution and mix well. The absorbance was read at 450 nm with a microtiter plate reader. The values of % activity versus a series of compound concentrations (0.01 µM–0.1 µM–1 µM–10 µM) was then plotted using non-linear regression analysis of sigmoidal dose-response curve.

[3] = tested on: MCF-10A (the human mammary epithelial cell line); test: MTT cytotoxicity on normal mammary epithelial cell line; conditions: for IC50: Homo sapiens, MCF-10A, read-out: IC50 on normal mammary epithelial cell line (MCF-10A); for Selectivity index: MCF-10A versus MCF-7 tumor cell line
MCF-7 cells [4] = test: Annexin V-FITC/PI apoptosis detection; assay type: cell-based, human; conditions: MCF-7, 0.66 µM, 24 h
Protocol: Apoptosis was evaluated utilizing Annexin V-FITC/PI apoptosis detection kit (Biovision, Mountain View, CA #K101-25) according to the manufacturer’s instructions after staining the cells with Annexin V fluorescein isothiocyanate (FITC) and counterstaining with propidium iodide (PI).
The cells then were centrifuged and in case of adherent cells, cells were gently trypsinized and washed once with serum-containing media followed by resuspension in 500 µL of binding buffer. About 5 µL of Annexin V-FITC and 5 µL of (PI […]) were added and incubated at room temperature for 5 min in the dark. Analyses were carried out using flow cytometer (Ex = 488 nm; Em = 530 nm) using FITC signal detector (usually FL1) and PI staining by the phycoerythrin emission signal detector (usually FL2).

MCF-7 cells [5] = test: Cell cycle analysis, propidium iodide flow cytometry; assay type: cell-based, human; conditions: 24 h
Protocol: Cell cycle were carried out using propidium iodide flow cytometry kit (Abcam, ab139418) according to the manufacturer’s instructions. The MCF-7 cells were treated with 0.66 µM of compound 5f for 24 h. Then, the cells were washed twice with ice-cold PBS, centrifuged and fixed using ice-cold 66% (v/v) ethanol, washed with PBS, re-suspended with 0.1 mg/mL RNase and stained with 200 µL propidium iodide (PI). Finally, cells were analyzed by flow cytometry. The cell cycle distributions were calculated using Cell-Quest software (Becton Dickinson). An interference with the normal cell cycle distribution resulted upon exposure of MCF-7 cells to this compound as indicated.

EGFR [6] = target: T1, EGFR; conditions: Figure 1 compounds I–VII; cited from earlier work
VEGFR-2 = conditions: Figure 1 compounds I–VII; cited from earlier work

Compound | melting point [°C] | IC50 (MCF-7 cell line) [nM] | IC50 (EGFR [1]) [nM] | also measured
NS(=O)(=O)c1ccc(Nc2ncnc3sc4c(c23)CCCCC4)cc1 [Compound 4a, 4-((6,7,8,9-Tetrahydro-5H-cyclohepta[4,5]thieno[2,3-d]pyrimidin-4-yl)amino)benzenesulfonamide] | 271 to 272 | 39800 ± 4110 |  | 
O=S(=O)(Nc1ncccn1)c1ccc(Nc2ncnc3sc4c(c23)CCCCC4)cc1 [Compound 4b, N-(Pyrimidin-2-yl)-4-((6,7,8,9-tetrahydro-5H-cyclohepta[4,5]thieno[2,3-d]pyrimidin-4-yl)amino)benzenesulfonamide] | 243 to 245 | 7120 ± 550 |  | 
Cc1ccnc(NS(=O)(=O)c2ccc(Nc3ncnc4sc5c(c34)CCCCC5)cc2)n1 [Compound 4c, N-(4-Methylpyrimidin-2-yl)-4-((6,7,8,9-tetrahydro-5H-cyclohepta[4,5]thieno[2,3-d]pyrimidin-4-yl)amino)benzenesulfonamide] | 260 to 262 | 11000 ± 1240 |  | 
Nc1cccc(Oc2ncnc3sc4c(c23)CCCCC4)c1 [Compound 5a, 3-((6,7,8,9-Tetrahydro-5H-cyclohepta[4,5]thieno[2,3-d]pyrimidin-4-yl)oxy)aniline] | 179 to 180 | 1980 ± 210 | 70 ± 3 | IC50 [2]: 1710 ± 62 nM
Nc1ccc(Oc2ncnc3sc4c(c23)CCCCC4)cc1 [Compound 5b, 4-((6,7,8,9-Tetrahydro-5H-cyclohepta[4,5]thieno[2,3-d]pyrimidin-4-yl)oxy)aniline] | > 300 | 1470 ± 110 | 42 ± 2 | folds more potent than lapatinib, EGFR inhibitory activity (EGFR [1]): 1.24 folds; IC50 [3]: 72700 ± 3980 nM; Selectivity index [3]: 49.5; IC50 [2]: 510 ± 16 nM
Brc1ccc(Oc2ncnc3sc4c(c23)CCCCC4)cc1 [Compound 5c, 4-(4-Bromophenoxy)-6,7,8,9-tetrahydro-5H-cyclohepta[4,5]thieno[2,3-d]pyrimidine] | 135 to 136 | 6650 ± 410 |  | 
Clc1ccccc1Oc1ncnc2sc3c(c12)CCCCC3 [Compound 5d, 4-(2-Chlorophenoxy)-6,7,8,9-tetrahydro-5H-cyclohepta[4,5]thieno[2,3-d]pyrimidine] | > 300 | 1340 ± 70 | 70 ± 4 | IC50 [2]: 740 ± 25 nM
Clc1ccc(Oc2ncnc3sc4c(c23)CCCCC4)cc1 [Compound 5e, 4-(4-Chlorophenoxy)-6,7,8,9-tetrahydro-5H-cyclohepta[4,5]thieno[2,3-d]pyrimidine] | 115 to 116 | 2760 ± 330 | 69 ± 3 | IC50 [2]: 340 ± 13 nM
Cc1cc(Oc2ncnc3sc4c(c23)CCCCC4)ccc1Cl [Compound 5f, 4-(4-Chloro-3-methylphenoxy)-6,7,8,9-tetrahydro-5H-cyclohepta[4,5]thieno[2,3-d]pyrimidine] |  | 660 ± 50 | 28 ± 3 | Apoptosis %Total (MCF-7 cells [4]): 17.58%; increase in annexin-V positive cells (early apoptosis) more than control (MCF-7 cells [4]): 6.07 folds; increase in late apoptotic cells more than control (MCF-7 cells [4]): about 24.66 folds; increase in necrotic cells more than control (MCF-7 cells [4]): ~12.48 folds; Apoptosis %Early (MCF-7 cells [4]; lower right quadrant): 5.34%; Necrosis (MCF-7 cells [4]; upper left quadrant): 2.87%; Apoptosis %Late (MCF-7 cells [4]; upper right quadrant): 9.37%; folds more potent than erlotinib, EGFR inhibitory activity (EGFR [1]): 1.18 folds; folds more potent than doxorubicin, anticancer activity (MCF-7 cell line; MCF-7): 4.64 folds; folds more potent than erlotinib, anticancer activity (MCF-7 cell line; MCF-7): 1.73 folds; IC50 [3]: 153000 ± 7570 nM; Selectivity index [3]: 232.1; %G0–G1 (MCF-7 cells [5]; MCF-7, 0.66 µM): 34.19%; %G2/M (MCF-7 cells [5]; MCF-7, 0.66 µM): 32.65%; %Pre-G1 (MCF-7 cells [5]; MCF-7, 0.66 µM): 17.58%; %S (MCF-7 cells [5]; MCF-7, 0.66 µM): 33.16%; increase in percentage of cells at G2/M phase compared to control (MCF-7 cells [5]; MCF-7, IC50 concentration): 4.75 folds; increase in percentage of cells at pre-G1 phase compared to control (MCF-7 cells [5]; MCF-7, IC50 concentration): 11.80 folds; IC50 [2]: 1230 ± 28 nM
Fc1ccc(Oc2ncnc3sc4c(c23)CCCCC4)cc1 [Compound 5g, 4-(4-Fluorophenoxy)-6,7,8,9-tetrahydro-5H-cyclohepta[4,5]thieno[2,3-d]pyrimidine] | > 300 | 1230 ± 40 | 200 ± 11 | 
Cc1ccccc1Oc1ncnc2sc3c(c12)CCCCC3 [Compound 5h, 4-(o-Tolyloxy)-6,7,8,9-tetrahydro-5H-cyclohepta[4,5]thieno[2,3-d]pyrimidine] | > 300 | 87400 ± 5400 |  | 
Cc1ccc(Oc2ncnc3sc4c(c23)CCCCC4)cc1 [Compound 5i, 4-(p-Tolyloxy)-6,7,8,9-tetrahydro-5H-cyclohepta[4,5]thieno[2,3-d]pyrimidine] | > 300 | 21100 ± 2700 |  | 
COc1ccc(Oc2ncnc3sc4c(c23)CCCCC4)cc1 [Compound 5j, 4-(4-Methoxyphenoxy)-6,7,8,9-tetrahydro-5H-cyclohepta[4,5]thieno[2,3-d]pyrimidine] | > 300 | 5010 ± 310 |  | 
O=[N+]([O-])c1ccc(Oc2ncnc3sc4c(c23)CCCCC4)cc1 [Compound 5k, 4-(4-Nitrophenoxy)-6,7,8,9-tetrahydro-5H-cyclohepta[4,5]thieno[2,3-d]pyrimidine] | 166 to 169 | 2760 ± 190 | 460 ± 18 | 
COc1cccc2c1C(=O)c1c(O)c3c(c(O)c1C2=O)C[C@@](O)(C(=O)CO)C[C@@H]3O[C@H]1C[C@H](N)[C@H](O)[C@H](C)O1 [Doxorubicin, reference compound] |  | 3060 ± 190 |  | IC50 [3]: 27600 ± 1550 nM
C#Cc1cccc(Nc2ncnc3cc(OCCOC)c(OCCOC)cc23)c1 [Erlotinib, reference compound] |  | 1140 ± 50 |  | IC50 [3]: 69400 ± 4240 nM
CCOC(=O)Nc1ccc(Nc2ncnc3cc(OC)c(OC)cc23)cc1Cl [III] |  |  |  | IC50 (EGFR [6]): 900 nM
COC(=O)Nc1ccc(Nc2ncnc3cc(OC)c(OC)cc23)cc1 [II] |  |  |  | IC50 (VEGFR-2): 5800 nM
COc1cc2nc(Cl)nc(Nc3ccc(S(=O)(=O)Nc4nccs4)cc3)c2cc1OC [IV] |  |  |  | IC50 (VEGFR-2): 7790 nM
COc1cc2ncnc(Nc3ccc(Br)cc3F)c2cc1OC [I] |  |  |  | IC50 (VEGFR-2): 1650 nM
O=C(Nc1cccc(Br)c1)Nc1ccc(Oc2ncnc3sc4c(c23)CCCC4)cc1Cl [VII] |  |  |  | IC50 (VEGFR-2): 15 nM
COc1cc2nc(Cl)nc(Nc3ccc(C(N)=O)cc3)c2cc1OC [VI] |  |  |  | IC50 (VEGFR-2): 1170 nM
COc1cc2nc(Cl)nc(Nc3ccc(S(N)(=O)=O)cc3)c2cc1OC [V] |  |  |  | IC50 (VEGFR-2): 1020 nM
